Read-outs that look alike come from different tables or passages of the source.
Tests used:
[1] = tested on: B16-F10 murine melanoma tumor cells; assay: In vitro cytotoxicity against B16-F10 melanoma cells (72 h, neutral red); type: cell-based
Method: (§1) BU-3129T (3,7-dihydroxytropolone) and its analogs were tested for in vitro cytotoxicity against logarithmically growing murine melanoma tumor cells in liquid culture. B16-F10 cells (4×10^4 cells) in the enriched MEM (Minimum essential medium (Eagle's)) containing test material solution were planted into wells of 96-well microtiter plates and incubated at 37° C., with 5% CO2 under high humidity for 72 hours. After staining with neutral red, cytotoxicity of test material was determined colorimetrically. The inhibitory effects on macromolecule biosynthesis were examined in cultured L1210 leukemia cells. L1210 cells (5×10^5 cells) were exposed to radioactive precursors (^3 H-thymidine, ^14 C-uridine and ^3 H-leucine) for 60 min after the treatment with test material for 15 min. The incorporated radioactivities into acid-insoluble fractions were measured by using a liquid scintillation counter. The in vivo antitumor activity of BU-3129T was determined in male BDF1 mice against leukemia P388 and melanoma B16. Leukemia P388 and melanoma B 16 were inoculated by the intraperitoneal injection at 10^6 cells and 0.5 ml of a 10% tumor brei per mouse, respectively. Test material was administered to mice intraperitoneally once daily through 1 to 9 days after tumor implantation. Tropolone and mitomycin C were comparatively tested in the experiments.

Melanoma B16 [2] = assay: In vivo antitumor activity against melanoma B16 in mice, Exp. 1; set-up: species or system male BDF1 mice; murine tumor; conditions: for T/C: MST
Method: as §1

[3] = Kirst, et. al., J. Antibiotics 1982; cited from earlier work
Leukemia P388 = type: in vivo, male BDF1 mice; murine tumor; conditions: for T/C: MST
Method: as §1

Melanoma B16 [4] = assay: In vivo antitumor activity against melanoma B16 in mice, Exp. 2; set-up: species or system male BDF1 mice; murine tumor; conditions: for Average weight change on day 5: B16 Exp. 2, qd 1→9, ip
Method: as §1

[5] = B16 Exp. 1, 0.16 mg/kg/day, qd 1→9, ip
[6] = B16 Exp. 1, 0.31 mg/kg/day, qd 1→9, ip
[7] = B16 Exp. 1, 0.63 mg/kg/day, qd 1→9, ip
[8] = B16 Exp. 1, 1.3 mg/kg/day, qd 1→9, ip
[9] = B16 Exp. 1, 2.5 mg/kg/day, qd 1→9, ip
[10] = B16 Exp. 1, 0.1 mg/kg/day, qd 1→9, ip
[11] = B16 Exp. 1, 0.3 mg/kg/day, qd 1→9, ip
[12] = B16 Exp. 1, 1.0 mg/kg/day, qd 1→9, ip
[13] = P388, 0.63 mg/kg/day, qd 1→9, ip

SMILES: O=c1c(O)cccc(O)c1O [BU-3129T, 3,7-dihydroxytropolone]
- Potency in the in vitro cytotoxicity test [1]: most potent
- Average weight change on day 5 (Melanoma B16 [2]; [5]): +0.4 g
- MST (Melanoma B16 [2]; [5]): 16.0 days
- Average weight change on day 5 (Melanoma B16 [2]; [6]): +1.2 g
- MST (Melanoma B16 [2]; [6]): 18.0 days
- Average weight change on day 5 (Melanoma B16 [2]; [7]): +1.0 g
- MST (Melanoma B16 [2]; [7]): 23.0 days
- Average weight change on day 5 (Melanoma B16 [2]; [8]): +0.4 g
- MST (Melanoma B16 [2]; [8]): 29.0 days
- Average weight change on day 5 (Melanoma B16 [2]; [9]): -0.8 g
- MST (Melanoma B16 [2]; [9]): 12.0 days
- tox (Melanoma B16 [2]; B16 Exp. 1, 5.0 mg/kg/day, qd 1→9, ip): tox
- T/C (Melanoma B16 [2]; [5]): 100%
- T/C (Melanoma B16 [2]; [6]): 113%
- T/C (Melanoma B16 [2]; [7]): 144%
- T/C (Melanoma B16 [2]; [8]): 181%
- T/C (Melanoma B16 [2]; [9]): 75%
- Antitumor activity against melanoma B16 (in words) (Melanoma B16 [2]; mice bearing murine tumors, ip): significant antitumor activity
- Inhibitory action against mammalian malignant tumors (in words) (Melanoma B16 [2]; overall conclusion from the data): marked inhibitory action
- Antimicrobial activity [3]: possesses antimicrobial activity
- Antitumor activity against leukemia P388 (in words) (Leukemia P388; mice bearing murine tumors, ip): no activity

SMILES: CO[C@@]12[C@H](COC(N)=O)C3=C(C(=O)C(C)=C(N)C3=O)N1C[C@@H]1N[C@@H]12 [Mitomycin C, reference compound]
- Average weight change on day 5 (Melanoma B16 [2]; [10]): +1.0 g
- Average weight change on day 5 (Melanoma B16 [2]; [11]): +0.4 g
- MST (Melanoma B16 [2]; [11]): 22.0 days
- Average weight change on day 5 (Melanoma B16 [2]; [12]): +0.6 g
- MST (Melanoma B16 [2]; [12]): 27.0 days
- T/C (Melanoma B16 [2]; [10]): 100%
- T/C (Melanoma B16 [2]; [11]): 128%
- T/C (Melanoma B16 [2]; [12]): 169%
- MST (Leukemia P388; [13]): 21.0 days
- T/C (Leukemia P388; P388, 0.08 mg/kg/day, qd 1→9, ip): 114%
- T/C (Leukemia P388; P388, 0.16 mg/kg/day, qd 1→9, ip): 143%
- T/C (Leukemia P388; P388, 0.31 mg/kg/day, qd 1→9, ip): 152%
- T/C (Leukemia P388; [13]): 200%
- T/C (Leukemia P388; P388, 1.3 mg/kg/day, qd 1→9, ip): 200%

SMILES: O=c1cccccc1O [Tropolone]
- Average weight change on day 5 (Melanoma B16 [4]; 1.0 mg/kg/day): +2.3 g
- Average weight change on day 5 (Melanoma B16 [4]; 3.0 mg/kg/day): +2.5 g
- Average weight change on day 5 (Melanoma B16 [4]; 10 mg/kg/day): +3.3 g
- Average weight change on day 5 (Melanoma B16 [4]; 30 mg/kg/day): +2.0 g
- Antitumor activity against melanoma B16 (in words) (Melanoma B16 [4]; at the doses tested): did not show any activity

From patent US4883758A, “Biologically pure culture of the microorganism Streptomycas tropolofaciens used for producing 3,7-dihydroxytropolone and antitumor use” (priority 1989, dated 1989)
